Data taken from US11369586B2, “Antifungal peptoids” (MIDDLE TENNESSEE STATE UNIVERSITY, priority 2018, dated 2022).

Columns and labels:
[1] = test system: C. neoformans H99S (serotype A lab strain); assay: Minimum inhibitory concentration (MIC) testing, CLSI broth dilution, PrestoBlue viability; assay type: cell-based, Cryptococcus neoformans
Experimental: The minimum inhibitory concentration (MIC) was determined against C. neoformans H99S (serotype A lab strain) as previously described. (Corson, et al. ACS Med. Chem. Lett. 2016, 7(12).) All MIC assays were carried out following CLSI guidelines. (CLSI. Reference method for broth dilution antifungal susceptibility testing of yeasts; approved standard-third edition; CLSI document M27-A3; Clinical and Laboratory Standards Institute: Wayne, Pa.) Briefly, the organism to be tested was streaked from frozen stock for isolation and incubated for 96 hours. A 5 mL solution of 0.85% saline was inoculated with 1-2 colonies of the organism of interest, and the inoculated solution was vortexed for one minute. The optical density at 530 nanometers (nm) was acquired on a spectrophotometer and adjusted through addition of saline or cells to obtain an OD530nm of 0.15 to 0.25. A 1:100 solution of Roswell Park Memorial Institute (RPMI) media containing 3-morpholinopropane sulfonic acid (MOPS; 0.1 M) and cells was made by adding 0.100 mL of saline inoculated with cells to 9.9 mL of RMPI. The solution was vortexed and used to make a 1:20 solution by adding and vortexing 0.5 mL of the 1:100 solution to 9.5 mL of RPMI+0.1 M MOPS. (This was repeated twice to make a total of 20 mL of 1:20 RPMI+ cells.)
Two-fold serial dilutions of peptoid were prepared in water at 100 times the concentration to be tested. In a 96-well plate, 198 μL of 1:20 RPMI+cells was placed in each well followed by 2 μL of 100-times compound or vehicle control in triplicate. The plate was incubated at 35° C. for 72 hours. For viability analysis, 20 μL of PrestoBlue was added to each well, the plate incubated for 8 hours, and the fluorescent intensity of each well measured (Ex. 555 nm; Em. 585 nm). All triplicate assays were repeated twice on different days.

[2] = test system: HepG2 hepatocarcinoma cells; assay: Mammalian cytotoxicity testing (MTT), HepG2; assay type: cell-based; details: for toxicity dose 50% (TD50), HepG2: sarcosine scan
Experimental: (§1) NIH/3T3 mouse fibroblasts and HepG2 hepatocarcinoma cells, cells were grown in DMEM containing 10% FBS at 37° C. and 5% CO2 atmosphere. For cytotoxicity testing, cells were seeded into 96-well plates in phenol red free DMEM containing 10% FBS and incubated for 2 hours to allow cell attachment. Cells were then treated with varying concentrations of peptoid or vehicle control. After 72 hours incubation, 3-(4,5-dimethylthiazol-2-yl)-2,5-diphenyltetrazolium bromide (MTT; 20 μL; 5 mg/mL) was added to each well and the plate incubated for 3.5 hours. Media was removed from each well and 100 μL of DMSO was added and the plate incubated at 37° C. for 10 minutes. The absorbance at 570 nm was then read on a spectrophotometer, percent inhibition determined, and TD50 calculated using GraFit. All triplicate assays were repeated twice on different days.

[3] = Corson et al. 2016; cited from earlier work
[4] = test system: human red blood cells (hRBCs); assay: Hemolytic activity against human red blood cells; assay type: cell-based; details: human erythrocytes, HC10
Experimental: The hemolytic activity of peptoids against human red blood cells (hRBCs) was done as previously described. (Murugan et al. Bioorg. Med. Chem. Lett. 2013, 23(16), 4633-4636.) Briefly, hRBCs were washed 3× with PBS (11.8 mM phosphate; 140.4 mM NaCl; pH 7.4) by centrifugation (10 minutes at 1000×g). Cells were resuspended in PBS and 100 μL aliquots placed into individual wells of a 96-well plate. Peptoid solutions (2-fold serial dilution in PBS; 400-3.13 μg/mL final) were added to the wells. A negative control was prepared by adding PBS with no peptoid to the hRBCs and a positive control was prepared by adding 1% Triton X-100 to the hRBCs. The plate was incubated at 37° C. for 1 hour, centrifuged at 1000×g for 10 minutes, and 5 μL of supernatant transferred into 95 μL of PBS in a new 96-well plate. Released hemoglobin was measured by reading the absorbance at 405 nm on a spectrophotometer. All triplicate assays were repeated twice on different days. Percent hemolysis was calculated as follows:
[formula] The Hill Slope (H) and HC50 was determined using GraFit and HC10 was calculated from HC50 using the following equation: HC10=HC50[10%/(100%−10%)]^1/H NMR Analysis

[5] = test system: NIH/3T3 mouse fibroblasts; assay: Mammalian cytotoxicity testing (MTT), NIH/3T3; assay type: cell-based
Experimental: as §1, with “For” for “NIH/3T3 mouse fibroblasts and HepG2 hepatocarcinoma cells, cells were grown in DMEM containing 10% FBS at 37° C. and 5% CO2 atmosphere. For”

[6] = C. neoformans MIC, relative to AEC5

## CCCCCCCCCCCCCNCC(=O)N(CCCCN)CC(=O)N(C)CC(N)=O [AEC5sar3]
[1]; [6]
  fold decrease in antifungal potency compared to AEC5: 8 fold
[2]; HepG2
  change of mammalian cell toxicity compared to AEC5: little effect on mammalian toxicity

## CCCCCCCCCCCCCNCC(=O)N(CCCCN)CC(=O)N(CC(N)=O)Cc1ccco1 [AEC5, reference compound]
[3]
  in vitro proteolytic stability: excellent
[2]; 72 hours incubation, MTT
  TD50 against HepG2 liver cells: 56.2 µg/mL
[2]
  toxicity dose 50% (TD50), HepG2: 56.2 m/mL

## CCCCCCCCCCCCCNCC(=O)N(CCCCN)CC(=O)N(CC(N)=O)Cc1cccs1 [γ-2]
[4]
  level of hemolysis compared to AEC5: slightly higher levels of hemolysis
[5]
  toxicity towards NIH/3T3 mouse fibroblasts compared to AEC5: decreased toxicity
[5]; NIH/3T3 toxicity and C. neoformans MIC
  selectivity ratio, NIH/3T3 mouse fibroblasts: 21
[1]; [6]
  fold improvement in antifungal potency compared to AEC5: 2 fold
[1]; Cryptococcus neoformans, read-out: MIC against C. neoformans
  MIC: < 3.5 µg/mL
[2]; HepG2 TD50 and C. neoformans MIC
  selectivity ratio (TD50/MIC): 25.3

## CCCCCCCCCCCCCNCC(=O)N(C)CC(=O)N(CC(N)=O)Cc1ccco1 [AEC5sar2]
[1]; [6]
  fold decrease in antifungal potency compared to AEC5: 2 fold
[2]; HepG2, relative to AEC5, printed as increased
  fold change of toxicity dose 50% (TD50) compared to AEC5: 2 fold
[2]
  toxicity dose 50% (TD50), HepG2: 21.1 m/mL

## CNCC(=O)N(CCCCN)CC(=O)N(CC(N)=O)Cc1ccco1 [AEC5sar1]
[1]; sarcosine scan
  antifungal potency (MIC), above highest concentration tested: > 400 m/mL
[2]
  toxicity dose 50% (TD50), HepG2: > 800 m/mL
